Data as given in patent publication EP4768479A1 (Hubei Bio-Pharmaceutical Industrial Technological Institute …, priority 2023, dated 2025).

Target: T1, AT2R (Homo sapiens, UniProt P50052)
T1 construct: purchased Cisbio #C1TT1AT2
T1 sequence (P50052 1-363): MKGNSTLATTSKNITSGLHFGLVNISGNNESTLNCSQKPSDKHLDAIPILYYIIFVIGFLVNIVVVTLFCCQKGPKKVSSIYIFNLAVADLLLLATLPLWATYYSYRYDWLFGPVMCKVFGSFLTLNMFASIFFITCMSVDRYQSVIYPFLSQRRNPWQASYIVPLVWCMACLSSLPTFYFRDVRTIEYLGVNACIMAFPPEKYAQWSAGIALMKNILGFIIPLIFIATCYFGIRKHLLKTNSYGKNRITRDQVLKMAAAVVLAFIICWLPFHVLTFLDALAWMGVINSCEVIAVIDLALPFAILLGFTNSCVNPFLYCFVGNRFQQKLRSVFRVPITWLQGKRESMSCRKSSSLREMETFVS
Assay: Binding assay of compounds to AT2R (Tag-lite HTRF ligand binding kit)
Description: The assay was performed in accordance with the manufacturer instructions of Angiotensin AT2 Receptor Ligand Binding Assay Kit (#C1TT1AT2, Cisbio). First, a 10 mM compound stock solution was diluted in a gradient at a 5× dilution ratio (including 10 concentrations, each with two replicates). 160 nL of compounds at different concentrations was added to a 384-well plate. 40 µL of 1× TLB (TLB: Tag-lite buffer) was added to each well, and the mixture was shaken at room temperature for 15 minutes. A 15 mL centrifuge tube added with 5 mL of 1×TLB was prepared in advance. The frozen labeled cells were thawed in a water bath at 37°C (for 1 to 2 minutes), and the thawed cells were quickly transferred to the above 15 mL centrifuge tube. The mixture was mixed well and centrifuged at 1,000 g at room temperature for 5 minutes. The supernatant was removed, and the cells were resuspended by adding 2.7 mL 1× TLB. A new 384-well plate was taken, and 10 µL of mixed cells were added into the corresponding wells according to the assay design. 5 µL of 4× compound solution and 5 µL of 4× Tag-lite red fluorescent labeled ligand were added to each well. After incubation at room temperature for 1 hour, data were read using EnVision with an HTRF mode. The […] at 665nM and 615nM in each well were read respectively, and the ratio was calculated (Ratio=A665nM/B615nM). The IC50 value was calculated by means of GraphPad Prism8 software, where X represents logarithmic value of compound concentration; and Y represents ratio of A665nM/B615nM.

| Structure (SMILES) | IC50 [nM] |
| --- | --- |
| Cc1c(CC(C)C)sc(S(=O)(=O)NC(=O)OC[C@@H](C)O)c1-c1ccc(Cn2ccnc2Cl)cc1 [Compound I-17, (2R)-2-hydroxypropyl ((3-(4-((2-chloro-1H-imidazol-1-yl)methyl)phenyl)-4-methyl-5-isobutylthiophen-2-yl)sulfonyl)carbamate] | 3.88 |
| Cc1c(CC(C)C)sc(S(=O)(=O)NC(=O)NCc2ccccn2)c1-c1ccc(Cn2ccnc2C(F)(F)F)cc1 [Compound I-24] | 4.41 |
| Cc1c(CC(C)C)sc(S(=O)(=O)NC(=O)OCCO)c1-c1ccc(Cn2ccnc2Cl)cc1 [Compound I-18, 2-hydroxyethyl ((3-(4-((2-chloro-1H-imidazol-1-yl)methyl)phenyl)-5-isobutyl-4-methylthiophen-2-yl)sulfonyl)carbamate] | 3.52 |
| Cc1c(CC(C)C)sc(S(=O)(=O)NC(=O)OC[C@H](C)O)c1-c1ccc(Cn2ccnc2Cl)cc1 [Compound I-16, (2S)-2-hydroxypropyl ((3-(4-((2-chloro-1H-imidazol-1-yl)methyl)phenyl)-4-methyl-5-isobutylthiophen-2-yl)sulfonyl)carbamate] | 4.49 |

Next, values leading:

| IC50 [nM] | Structure (SMILES) |
| --- | --- |
| 4.49 | Cc1c(CC(C)C)sc(S(=O)(=O)NC(=O)OC[C@H](C)O)c1-c1ccc(Cn2ccnc2C(F)(F)F)cc1 [Compound I-11, (2S)-2-hydroxypropyl ((5-isobutyl-4-methyl-3-(4-((2-(trifluoromethyl)-1H-imidazol-1-yl)methyl)phenyl)thiophen-2-yl)sulfonyl)carbamate] |
| 3.46 | CCCCOC(=O)NS(=O)(=O)c1sc(CC(C)C)c(F)c1-c1ccc(Cn2ccnc2C(F)(F)F)cc1 [Compound I-4, Butyl ((4-fluoro-5-isobutyl-3-(4-((2-(trifluoromethyl)-1H-imidazol-1-yl)methyl)phenyl)thiophen-2-yl)sulfonyl)carbamate] |
| 6.67 | COC(=O)NS(=O)(=O)c1sc(CC(C)C)c(F)c1-c1ccc(Cn2ccnc2Cl)cc1 [Compound I-1, Methyl ((3-(4-((2-chloro-1H-imidazol-1-yl)methyl)phenyl)-4-fluoro-5-isobutylthiophen-2-yl)sulfonyl) carbamate] |
| 3.21 | CCCCOC(=O)NS(=O)(=O)c1sc(CC(C)C)c(F)c1-c1ccc(Cn2ccnc2C(C)(C)O)cc1 [Compound I-3, Butyl ((4-fluoro-3-(4-((2-(2-hydroxypropan-2-yl)-1H-imidazol-1-yl)methyl)phenyl)-5-isobutylthiophen-2-yl)sulfonyl)carbamate] |
| 3.88 | Cc1c(CC(C)C)sc(S(=O)(=O)NC(=O)OC[C@@H](C)O)c1-c1ccc(Cn2ccnc2C(F)(F)F)cc1 [Compound I-12, (2R)-2-hydroxypropyl ((5-isobutyl-4-methyl-3-(4-((2-(trifluoromethyl)-1H-imidazol-1-yl)methyl)phenyl)thiophen-2-yl)sulfonyl)carbamate] |
| 6.56 | COC(=O)NS(=O)(=O)c1sc(CC(C)C)c(F)c1-c1ccc(Cn2ccnc2C(F)(F)F)cc1 [Compound I-2, Methyl ((4-fluoro-5-isobutyl-3-(4-((2-(trifluoromethyl)-1H-imidazol-1-yl)methyl)phenyl)thiophen-2-yl)sulfonyl) carbamate] |
